Experimental data published in patent US20230405063A1, “USE OF PROBIOTIC COMPONENT AND PHARMACEUTICAL COMPOSITION CONTAINING PROBIOTIC COMPONENT” (CHENGDU KUACHANGAOPU MEDICAL TECHNOLOGY CO., LTD., priority 2020, published 2023).

Tests used:
Assay type in all cases: in vivo
lung tumor cells (A549) = test: Tumor inhibition in A549 tumor-bearing nude mice, co-administration (Example 5, Table 7); conditions: dosed once, 7th day, probiotic component = heat-inactivated Saccharomyces boulardii
From the text: (§1) The method for determining the effect of combined drug administration in animal experiments was Burgi method (Burgi Y. Pharmacology; Drug actions and reactions. Cancerres. 1978, 38(2), 284-285). The Burgi method was modified by Zhengjun JIN (Zhengjun JIN, Equal probability and curve and “Q50”, Journal of the Second Shanghai Medical College; 1981, 1, 75-86) with q calculated as: q=EA+B/(EA+EB−EA×EB). In the following examples of the present invention, the combinational pharmaceutical efficacies (drug efficacies) of drug A and drug B co-administration was determined by ratio q of actual pharmaceutical efficacy (drug efficacy)/theoretical pharmaceutical efficacy (drug efficacy) according to Zhengjun JIN method, as follows.
Nude mice were used as experimental subjects, and lung tumor cells (A549) were used as modeling cells, 1×10^5 cells/mouse were injected into the right axilla subcutaneously for transplantation tumor modeling, and the average tumor volume of successfully modeled nude mice was 153.7 mm^3. The model animals were randomly divided into 18 groups, and the drugs were administered according to the drug components and administration route in Table 7. Each group was dosed once with an injection volume of […]. Wherein, the probiotic component was heat-inactivated Saccharomyces boulardii, and the administration route of group 16 was intra-tumoral injection of probiotic component followed by intra-tumoral injection of 10% arginine about 2 hours later. On the 7th day after drug administration, the animals were euthanized, and after dissection, the tumor tissue was taken out to determine the tumor weight, and the tumor inhibition rate (r) was calculated relative to the negative control group. Further, the actual efficacy/expected efficacy ratio q of a drug could also be calculated according to the therapeutic effect (tumor inhibition rate).

[1] = test system: human hepatoma cells (HepG2); test: Tumor inhibition in HepG2 tumor-bearing nude mice, probiotic component/lysine (Example 7, Table 12); conditions: dosed twice, interval 7 days, 7th day after final administration, probiotic component = supernatant component of disrupted Saccharomyces cerevisiae
Procedure: (§2) In the following examples of the present invention, the combinational pharmaceutical efficacies (drug efficacies) of drug A and drug B co-administration was determined by ratio q of actual pharmaceutical efficacy (drug efficacy)/theoretical pharmaceutical efficacy (drug efficacy) according to Zhengjun JIN method, as follows.
Nude mice were used as experimental subjects, and human hepatoma cells (HepG2) were used as modeling cells. […] The model animals were randomly divided into 13 groups, and the drugs were administered according to Table 12. […] Each group was dosed twice at an interval of 7 days with an injection volume of […]. On the 7th day after final administration, the animals were euthanized, and the tumor tissues were taken out after dissection to determine the tumor weight, and the tumor inhibition rate was calculated relative to the negative control group.

breast cancer 4T1 cells [2] = test: Extra-tumoral local administration in 4T1 tumor-bearing BALB/c mice, R7d/R21d (Example 11, Table 17); conditions: subaxillary intradermal (extra-tumoral), twice at 7-day interval, 120 μl/mouse/time; for R7 d (relative tumor proliferation rate): day 7 after last dose; for R21 d (relative tumor proliferation rate): day 21 after last dose
Procedure: (§3) V=0.5×a×b^2, wherein a and b represent the length and width of the local lesion, respectively; Volume of the local lesion (e.g. tumor):
(§4) Local lesion (e.g., tumor) proliferation rate (R)=TV/CV×100, wherein TV and CV are the local lesion volumes in the study group and negative control group, respectively;
as §2
BALB/c mice were used as experimental subjects, and breast cancer 4T1 cells were used as modeling cells. 0.25×10^5 cells/mouse were injected into the right axilla subcutaneously for transplantation tumor modeling. On the 5th day after modeling, the test animals with visually obvious tumors were randomly divided into 12 groups, having 10 animals in each group. […] In groups 1-11, on days 7 and 21 after the last dose the tumor volume (V7d, V21d) were measured, and the relative tumor proliferation rates (R7d, R21d) were calculated relative to the negative control group on days 7 and 21 after the dose, so that the short-term therapeutic effectiveness (100%−R7d) and the medium- and long-term therapeutic effectiveness (100%−R21d) could be calculated, respectively. Further, based on the short-term therapeutic effectiveness and the medium- and long-term therapeutic effectiveness, the actual/expected ratio for short-term pharmaceutical efficacies q7d and the actual/expected ratio for medium- and long-term pharmaceutical efficacies q21d were calculated respectively.

[3] = test system: human pancreatic cancer cells (PANC-1); test: Tumor inhibition in PANC-1 tumor-bearing nude mice, probiotic component/gemcitabine (Example 7, Table 13); conditions: dosed once, 100 μl/mouse/time, 7th day, probiotic component = supernatant component of disrupted Saccharomyces cerevisiae
From the text: The method for determining the effect of combined drug administration in animal experiments was Burgi method (Burgi Y. Pharmacology; Drug actions and reactions. […] The Burgi method was modified by Zhengjun JIN (Zhengjun JIN, Equal probability and curve and “Q50”, Journal of the Second Shanghai Medical College; 1981, 1, 75-86) with q calculated as: q=EA+B/(EA+EB-EA×EB). In the following examples of the present invention, the combinational pharmaceutical efficacies (drug efficacies) of drug A and drug B co-administration was determined by ratio q of actual pharmaceutical efficacy (drug efficacy)/theoretical pharmaceutical efficacy (drug efficacy) according to Zhengjun JIN method, as follows. […] The model animals were randomly divided into 13 groups, and the drugs were administered according to Table 13.

[4] = test system: human liver cancer HepG2 cells; test: Tumor inhibition in HepG2 tumor-bearing nude mice (Example 2, Table 4); conditions: dosed once, 150 μl/mouse; for Tumor weight (x ± s): 7th day after administration; for Tumor inhibition rate r: 7th day, relative to negative control
Procedure: The tumor-bearing nude mice were widely used for drug studies on chemotherapy rather than immunotherapy in patients with solid tumors. Taking nude mice as experimental subjects, human liver cancer HepG2 cells were used as modeling cells, and 1×10^5 cells/mouse were injected into the right axilla subcutaneously for transplantation tumor modeling, and the average tumor volume of successfully modeled nude mice was 161.3 mm^3. The model animals were randomly divided into 17 groups. The drugs were administered according to the drug and dosing method in Table 4. Each group was dosed once with an injection volume of 150 μl/mouse. On the 7th day after drug administration, the animals were euthanized, and after dissection, the tumor tissue was taken out to determine the tumor weight, and the tumor inhibition rate (r) was calculated relative to the negative control group.

breast cancer 4T1 cells [5] = test: Short-term tumor inhibition in 4T1 tumor-bearing BALB/c mice (Example 9, Table 14); conditions: dosed twice, 7th day after final administration
From the text: as §1
BALB/c mice were used as experimental subjects, and breast cancer 4T1 cells were used as modeling cells. 0.5×10^6 cells/mouse were injected into the right axilla subcutaneously for transplantation tumor modeling, and the average tumor volume of successfully modeled nude mice was 160.1 mm^3. The model animals were randomly divided into 21 groups, and the drugs were administered by intravenous injection (series A) and intratumoral injection (series B) according to the drugs and doses in Table 14, respectively. All the drugs administered were aqueous liquids, which were formulated according to the method of Example 1. Each group was dosed twice. On the 7th day after final administration, the animals were euthanized, and the tumor tissues were taken out after dissection to determine the tumor weight, and the tumor inhibition rates rA and rB were calculated relative to the corresponding negative control groups in series A and series B.

breast cancer 4T1 cells [6] = test: Short- and medium/long-term relative tumor proliferation rate in 4T1 tumor-bearing BALB/c mice (Example 10, Table 16); conditions: intratumoral injection, dosed twice at interval of 7 days, 100 μl/mouse/time
From the text: as §3, §4, §1
BALB/c mice were used as experimental subjects, and breast cancer 4T1 cells were used as modeling cells. 0.5×10^6 cells/mouse were injected into the right axilla subcutaneously for transplantation tumor modeling, and the average tumor volume of successfully modeled nude mice was 107.4 mm^3. The model animals were randomly divided into 17 groups.
The drugs, formulated according to the method of Example 1, were administered according to Table 16. Each group was dosed twice with an interval of 7 days, and the injection volumes were 300 μl/mouse/time for groups 13 and 14, 100 μl/mouse/time for other groups. The drugs were administered by subaxillary administration of the right forelimb for group 15, and by intratumoral injection for other groups. Group 16 was administered sequentially (the first dose was aprobiotic semi-fluid-like component/cytotoxic drug/weak local acting compound, and the last dose was inactivated probiotics), while the other groups were administered with the same drug twice. On days 7 and 21 after the last dose, the tumor volumes of each group were measured (V7d, V21d), and the relative tumor proliferation rates (R7d, R21d) were calculated relative to the negative control group, respectively, so that the short-term therapeutic effectiveness (100%−R7d) and the medium- and long-term therapeutic effectiveness (100%−R21d) could be calculated, respectively.

[7] = intratumoral injection, '+' = arginine injected about 2 hours later
[8] = listed as 20% lysine, 20% lysine

N=C(N)NCCC[C@H](N)C(=O)O [10% arginine, arginine]
Tumor inhibition rate r (lung tumor cells (A549); [7]): 24.7%
Tumor weight (x ± s) (lung tumor cells (A549); [7]): 0.164 ± 0.061 g
Tumor inhibition rate r (lung tumor cells (A549); intravenous injection): 6.4%
Tumor weight (x ± s) (lung tumor cells (A549); intravenous injection): 0.196 ± 0.077 g

NCCCC[C@H](N)C(=O)O [25% lysine, lysine]
Tumor inhibition rate [1]: 54.1%
Tumor weight (x ± s) [1]: 0.109 ± 0.074 g
Tumor inhibition rate ([1]; 5% lysine): 11.3%
Tumor weight (x ± s) ([1]; 5% lysine): 0.211 ± 0.091 g
Tumor inhibition rate ([1]; listed as 1% lysine, 1% lysine): 5.2%
Tumor weight (x ± s) ([1]; listed as 1% lysine, 1% lysine): 0.226 ± 0.112 g
Tumor inhibition rate [1, 8]: 43.6%
Tumor weight (x ± s) [1, 8]: 0.134 ± 0.073 g
R7 d (relative tumor proliferation rate) (breast cancer 4T1 cells [2]): 96%
R21 d (relative tumor proliferation rate) (breast cancer 4T1 cells [2]): 102%

Nc1ccn([C@@H]2O[C@H](CO)[C@@H](O)C2(F)F)c(=O)n1 [5% gemcitabine, gemcitabine]
Tumor inhibition rate [3]: 35.1%
Tumor weight (x ± s) [3]: 0.191 ± 0.077 g
Tumor inhibition rate ([3]; listed as 0.05% gemcitabine): 5.6%
Tumor inhibition rate ([3]; listed as 0.1% gemcitabine): 7.8%
Tumor inhibition rate ([3]; listed as […] gemcitabine): 30.4%
Tumor weight (x ± s) ([3]; listed as […] gemcitabine): 0.204 ± 0.103 g

B1: interleukin-12 (protein, UniProt P29459 23-219; P29460 23-328, looked up)
Interleukin-12 subunit alpha: RNLPVATPDPGMFPCLHHSQNLLRAVSNMLQKARQTLEFYPCTSEEIDHEDITKDKTSTVEACLPLELTKNESCLNSRETSFITNGSCLASRKTSFMMALCLSSIYEDLKMYQVEFKTMNAKLLMDPKRQIFLDQNMLAVIDELMQALNFNSETVPQKSSLEEPDFYKTKIKLCILLHAFRIRAVTIDRVMSYLNAS
Interleukin-12 subunit beta: IWELKKDVYVVELDWYPDAPGEMVVLTCDTPEEDGITWTLDQSSEVLGSGKTLTIQVKEFGDAGQYTCHKGGEVLSHSLLLLHKKEDGIWSTDILKDQKEPKNKTFLRCEAKNYSGRFTCWWLTTISTDLTFSVKSSRGSSDPQGVTCGAATLSAERVRGDNKEYEYSVECQEDSACPAAEESLPIEVMVDAVHKLKYENYTSSFFIRDIIKPDPPKNLQLKPLKNSRQVEVSWEYPDTWSTPHSYFSLTFCVQVQGKSKREKKDRVFTDKTSATVICRKNASISVRAQDRYYSSSWSEWASVPCS
notes: immunoenhancement control
Tumor weight (x ± s) ([4]; intratumoral injection): 0.241 ± 0.111 g
Tumor inhibition rate r ([4]; intratumoral injection): 8.1%
Tumor weight (x ± s) ([4]; intravenous injection): 0.230 ± 0.102 g
Tumor inhibition rate r ([4]; intravenous injection): 4.7%
tumor inhibition rate rA (breast cancer 4T1 cells [5]; series A: intravenous injection): 5.3%
tumor inhibition rate rB (breast cancer 4T1 cells [5]; series B: intratumoral injection): 4.6%
relative tumor proliferation rate R7 d (breast cancer 4T1 cells [6]; day 7 after last dose): 95%
relative tumor proliferation rate R21 d (breast cancer 4T1 cells [6]; day 21 after last dose): 96%
R7 d (relative tumor proliferation rate) (breast cancer 4T1 cells [2]): 99%
R21 d (relative tumor proliferation rate) (breast cancer 4T1 cells [2]): 97%
